Measured values reported in ChEMBL document CHEMBL4266016, “Synthesis, Racemic X-ray Crystallographic, and Permeability Studies of Bioactive Orbitides from Jatropha Species” (J Nat Prod, 2018).
Square brackets hold non-standard residues; d marks the D form. Peptide text beside a SMILES is read from it. NMeF = CN[C@@H](Cc1ccccc1)C(=O)O; NMeI = CC[C@H](C)[C@H](NC)C(=O)O; NMeL = CN[C@@H](CC(C)C)C(=O)O; NMeS = CN[C@@H](CO)C(=O)O; Sar = CNCC(=O)O

How the values were obtained:
[1] = Apparent permeability of the compound at 50 uM after 5 hrs by PAMPA; format: ADME
Caco-2 = assay: Cytotoxicity against human Caco2 cells at 0.5 to 64 uM after 2 hrs by resazurin dye based fluorescence assay; format: cell-based; settings: caco-2, 2 h
[2] = Apparent permeability across human Caco2 cells at 50 uM after 90 mins by LC-MS analysis; format: ADME, cell-based; settings: caco-2, 1.5 h
[3] = Inhibition of porcine pepsin using EDANS-DABCYL as substrate pretreated for 5 mins followed by substrate addition measured for 5 mins by spectrophotometric method; design: species or system Sus scrofa

Structure (SMILES) | Papp [1] | Activity (Caco-2) | Papp [2] | IC50 [3] [nM]
CC[C@H](C)[C@@H]1NC(=O)CNC(=O)[C@H](CC(C)C)NC(=O)[C@H]([C@@H](C)CC)NC(=O)[C@H]([C@@H](C)CC)NC(=O)[C@H](CO)NC(=O)CNC(=O)[C@H](CC(C)C)NC1=O (cyclo(GILGSIIL)) | Impermeable | Non-Toxic | Impermeable | 
CC[C@H](C)[C@@H]1NC(=O)CNC(=O)[C@H](CC(C)C)NC(=O)[C@H]([C@@H](C)CC)NC(=O)[C@H]([C@@H](C)CC)NC(=O)[C@H](CO)N(C)C(=O)CNC(=O)[C@H](CC(C)C)NC1=O (cyclo(GILG[NMeS]IIL)) | Impermeable |  | Impermeable | 
CC[C@H](C)[C@@H]1NC(=O)CNC(=O)[C@H](CC(C)C)NC(=O)[C@H]([C@@H](C)CC)NC(=O)[C@H]([C@@H](C)CC)NC(=O)[C@H](CO)N(C)C(=O)CN(C)C(=O)[C@H](CC(C)C)NC1=O (cyclo(GIL[Sar][NMeS]IIL)) | Impermeable |  | Impermeable | 
CC[C@H](C)[C@@H]1NC(=O)[C@H]([C@@H](C)CC)N(C)C(=O)[C@H](CO)NC(=O)CN(C)C(=O)[C@H](CC(C)C)N(C)C(=O)[C@H]([C@@H](C)CC)NC(=O)CN(C)C(=O)[C@H](CC(C)C)NC1=O (cyclo(IL[Sar]I[NMeL][Sar]S[NMeI])) | Permeable |  | Impermeable | 
CC[C@H](C)[C@@H]1NC(=O)[C@H]([C@@H](C)O)NC(=O)CN(C)C(=O)CNC(=O)[C@H](Cc2ccccc2)NC(=O)CNC(=O)[C@H](Cc2ccccc2)N(C)C(=O)[C@H]([C@@H](C)CC)N(C)C1=O (cyclo(FG[Sar]TI[NMeI][NMeF]G)) | Impermeable |  | Impermeable | 
CC[C@H](C)[C@@H]1NC(=O)[C@H]([C@@H](C)O)NC(=O)CN(C)C(=O)CNC(=O)[C@H](Cc2ccccc2)NC(=O)CNC(=O)[C@H](Cc2ccccc2)N(C)C(=O)[C@H]([C@@H](C)CC)NC1=O (cyclo(FG[Sar]TII[NMeF]G)) | Impermeable |  | Impermeable | 
CC(C)C[C@@H]1NC(=O)CNC(=O)[C@@H]2CCCN2C(=O)CNC(=O)[C@H](Cc2c[nH]c3ccccc23)NC(=O)[C@H](CC(C)C)NC(=O)[C@H](CC(N)=O)NC(=O)[C@H](CC(C)C)NC1=O (cyclo(GLLNLWGP)) | Impermeable | Non-Toxic | Impermeable | 900
CC[C@H](C)[C@@H]1NC(=O)[C@H]([C@@H](C)O)NC(=O)CN(C)C(=O)CN(C)C(=O)[C@H](Cc2ccccc2)NC(=O)CN(C)C(=O)[C@H](Cc2ccccc2)N(C)C(=O)[C@H]([C@@H](C)CC)NC1=O (cyclo(F[Sar][Sar]TII[NMeF][Sar])) | Impermeable |  | Impermeable | 
CC[C@H](C)[C@@H]1NC(=O)CNC(=O)[C@H](CC(C)C)NC(=O)[C@H]([C@@H](C)CC)NC(=O)[C@H]([C@@H](C)CC)NC(=O)[C@H](CO)NC(=O)CN(C)C(=O)[C@H](CC(C)C)NC1=O (cyclo(GIL[Sar]SIIL)) | Impermeable |  | Impermeable | 
CC[C@H](C)[C@@H]1NC(=O)[C@H]([C@@H](C)O)NC(=O)CNC(=O)CNC(=O)[C@H](Cc2ccccc2)NC(=O)CNC(=O)[C@H](Cc2ccccc2)NC(=O)[C@H]([C@@H](C)CC)NC1=O (cyclo(FGFGGTII)) | Impermeable | Non-Toxic | Impermeable | 
